PubChem BioAssay AID1963977 (Molecular Pharmacology Branch, DTP, NCI, 2024)
Blank lines part the entries; values can stand above or below the compound they belong to.

Test system: 624824-186-R-J3-PDC multicell spheroids, viability
Assay: Anticancer human tumor 624824-186-R-J3-PDC patient-derived colon adenocarcinoma cell line growth inhibition [PI3K]
Settings: for IC50: curve of first compound; for viability, T/C: stronger effect = lower value
Description: Combinatorial screen of targeted agents with the PI3K inhibitors inavolisib, alpelisib, duvelisib, and copanlisib in multi-cell type tumor spheroids
A high-throughput screen of multi-cell type tumor spheroids was designed to identify active combinations of targeted small molecules and PI3K pathway inhibitors. Complex spheroids include a stromal component modeled by human endothelial cells (HUVEC) and fibroblasts modeled by human mesenchymal stem cells (MSCs). The concentration ranges selected for each drug and investigational agent were based upon clinically achievable concentrations if the clinical Cmax of the agent was known.
Compounds. The drugs and investigational agents: inavolisib (NSC800729), alpelisib (NSC765974), duvelisib (NSC772469), copanlisib (NSC816437), ipatasertib (NSC767898), afuresertib (NSC778305), talazoparib (NSC767125), sapanisertib (NSC764658), selumetinib (NSC741078), tovorafenib (DAY101, NSC766906), vemurafenib (NSC761431), ravoxertinib (NSC781343), sotorasib (NSC818433), MRTX1133 (NSC 836407), abemaciclib (NSC 768073), palbociclib (NSC758247), venetoclax (NSC 766270), SY5609 (NSC837396), enzalutamide (NSC755605), and darolutamide (NSC825331), were obtained from the National Cancer Institute (NCI) Developmental Therapeutics Program Chemical Repository. The FDA-approved anticancer drug set is available from the NCI Developmental Therapeutics Program. […] The stock solutions were prepared in dimethyl sulfoxide (DMSO, Sigma-Aldrich, St. Louis, MO, cat. D2650) at 800-fold the tested concentration and stored at -70 degrees C prior to their use. All drugs and investigational agents were tested over a range starting from a high concentration at or near the clinical Cmax and decreasing in half-log increments. If the clinical Cmax for an agent had not been determined, the highest concentration tested was 10 microM.
Cell Culture. All cells were maintained in an incubator at 37 degrees C and 5% CO2 with 95% humidity. The PDC lines were cultured according to standard operating procedures established by the NCI PDMR (https://pdmr.cancer.gov/sops/default.htm). All PDCs were thawed and cultured in Matrigel-coated flasks prepared with a working solution of 1X Ham's F-12 nutrient mix, without supplementation (Invitrogen, Waltham, MA, cat. 11765054), 100 U/mL penicillin-streptomycin (Invitrogen, cat. 15140122), and 2.5% Matrigel (Corning Inc., Corning, NY, cat. 354248) for the first three passages. The 354836-022-R-J1-PDC, 475296-252-R-J1-PDC, and 997726-040-R-J2-PDC lines were cultured in 6A media, which includes advanced DMEM/F-12 (Thermo Fisher Scientific, cat. 12634028), 10 mM HEPES (Thermo Fisher Scientific, cat. 15630080), 1X GlutaMAX supplement (Thermo Fisher Scientific, cat. 35050061), 0.1 mg/mL primocin (InvivoGen, San Diego, CA, cat. ant-pm-2), 10% defined fetal bovine serum, heat inactivated (HyClone Laboratories Inc., Logan, UT, cat. SH30070.03HI), 50% L-WRN conditioned media (ATCC, cat. CRL-3276), 1.25 mM N-Acetyl-L-cysteine (Sigma-Aldrich, cat. A9165), 10 mM nicotinamide (Sigma-Aldrich, cat. N0636), 1X B-27 supplement (Thermo Fisher Scientific, cat. 17504044), 1X N-2 supplement (Thermo Fisher Scientific, cat. 17502048), and 10 microM Y-27632 dihydrochloride (Tocris Bioscience, Bristol, United Kingdom, cat. 1254). The 624824-186-R-J2-PDC line was cultured in 6C/Colon 1B media, which includes all 6A media components plus 50 ng/mL human EGF recombinant protein (Thermo Fisher Scientific, cat. PHG0311). […]

[1] = second compound 0.00316 µM, first compound 0.0316 µM
[2] = second compound 0.00316 µM, first compound 0.1 µM
[3] = second compound 0.00316 µM, first compound 0.316 µM
[4] = second compound 0.00316 µM, first compound 1 µM
[5] = second compound 0.01 µM, first compound 0.0316 µM
[6] = second compound 0.01 µM, first compound 0.1 µM
[7] = second compound 0.01 µM, first compound 0.316 µM
[8] = second compound 0.01 µM, first compound 1 µM
[9] = second compound 0.0316 µM, first compound 0.0316 µM
[10] = second compound 0.0316 µM, first compound 0.1 µM
[11] = second compound 0.0316 µM, first compound 0.316 µM
[12] = second compound 0.0316 µM, first compound 1 µM
[13] = second compound 0.0316 µM, first compound 3.16 µM
[14] = second compound 0.0316 µM, first compound 10 µM
[15] = second compound 0.1 µM, first compound 0.0316 µM
[16] = second compound 0.1 µM, first compound 0.1 µM
[17] = second compound 0.1 µM, first compound 0.316 µM
[18] = second compound 0.1 µM, first compound 1 µM
[19] = second compound 0.1 µM, first compound 3.16 µM
[20] = second compound 0.1 µM, first compound 10 µM
[21] = second compound 0.316 µM, first compound 0.0316 µM
[22] = second compound 0.316 µM, first compound 0.1 µM
[23] = second compound 0.316 µM, first compound 0.316 µM
[24] = second compound 0.316 µM, first compound 1 µM
[25] = second compound 0.316 µM, first compound 3.16 µM
[26] = second compound 0.316 µM, first compound 10 µM
[27] = second compound 1 µM, first compound 0.0316 µM
[28] = second compound 1 µM, first compound 0.1 µM
[29] = second compound 1 µM, first compound 0.316 µM
[30] = second compound 1 µM, first compound 1 µM
[31] = second compound 1 µM, first compound 3.16 µM
[32] = second compound 1 µM, first compound 10 µM
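Note: spheroids exposed to agents for seven days before luminescence read.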
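Throughout, for viability, T/C: luminescent signal used as a stand-in for spheroid viability; percent viability relative to DMSO vehicle control wells taken as 100%.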

IC50 (second compound 0.00316 µM): > 10000 nM
IC50 (second compound 0.01 µM): > 10000 nM
IC50 (second compound 0.0316 µM): > 10000 nM
IC50 (second compound 0.1 µM): > 10000 nM
IC50 (second compound 0.316 µM): > 10000 nM
IC50 (second compound 1 µM): > 10000 nM
Compound: CC(Cn1ccc(-c2ccc(C#N)c(Cl)c2)n1)NC(=O)c1cc(C(C)O)[nH]n1 (stereo unspecified) + CC(Nc1ccc2c(c1)OCCn1cc(N3C(=O)OCC3C(F)F)nc1-2)C(N)=O
viability, T/C [1]: 98.3%
viability, T/C [2]: 98.6%
viability, T/C [3]: 94.7%
viability, T/C [4]: 92.7%
viability, T/C (second compound 0.00316 µM, first compound 3.16 µM): 94.6%
viability, T/C (second compound 0.00316 µM, first compound 10 µM): 103%
viability, T/C [5]: 93%
viability, T/C [6]: 100%
viability, T/C [7]: 115%
viability, T/C [8]: 101%
viability, T/C (second compound 0.01 µM, first compound 3.16 µM): 103%
viability, T/C (second compound 0.01 µM, first compound 10 µM): 95.5%
viability, T/C [9]: 110%
viability, T/C [10]: 96.4%
viability, T/C [11]: 97.4%
viability, T/C [12]: 107%
viability, T/C [13]: 112%
viability, T/C [14]: 99%
viability, T/C [15]: 101%
viability, T/C [16]: 97.5%
viability, T/C [17]: 93.3%
viability, T/C [18]: 102%
viability, T/C [19]: 102%
viability, T/C [20]: 91%
viability, T/C [21]: 94.2%
viability, T/C [22]: 96%
viability, T/C [23]: 101%
viability, T/C [24]: 91.4%
viability, T/C [25]: 91.5%
viability, T/C [26]: 77.8%
viability, T/C [27]: 87.6%
viability, T/C [28]: 88.2%
viability, T/C [29]: 83.8%
viability, T/C [30]: 88.7%
viability, T/C [31]: 81.9%
viability, T/C [32]: 79.1%

IC50 (second compound 0.0316 µM): 8080 nM
IC50 (second compound 0.1 µM): 5010 nM
IC50 (second compound 0.316 µM): 1570 nM
IC50 (second compound 1 µM): 783 nM
IC50 (second compound 3.16 µM): 223 nM
IC50 (second compound 10 µM): 100 nM
Compound: Cn1nccc1Nc1nccc(-c2ccn(C(CO)c3ccc(Cl)c(F)c3)c(=O)c2)n1 (stereo unspecified) + Cc1nc(NC(=O)N2CCCC2C(N)=O)sc1-c1ccnc(C(C)(C)C(F)(F)F)c1
viability, T/C [9]: 119%
viability, T/C [10]: 105%
viability, T/C [11]: 90.7%
viability, T/C [12]: 74.7%
viability, T/C [13]: 55%
viability, T/C [14]: 49.5%
viability, T/C [15]: 109%
viability, T/C [16]: 104%
viability, T/C [17]: 83.6%
viability, T/C [18]: 73%
viability, T/C [19]: 56.3%
viability, T/C [20]: 40.9%
viability, T/C [21]: 106%
viability, T/C [22]: 110%
viability, T/C [23]: 78%
viability, T/C [24]: 58%
viability, T/C [25]: 42%
viability, T/C [26]: 31.8%
viability, T/C [27]: 103%
viability, T/C [28]: 89.5%
viability, T/C [29]: 72.7%
viability, T/C [30]: 43.2%
viability, T/C [31]: 29.6%
viability, T/C [32]: 25.4%
viability, T/C (second compound 3.16 µM, first compound 0.0316 µM): 84.5%
viability, T/C (second compound 3.16 µM, first compound 0.1 µM): 77.7%
viability, T/C (second compound 3.16 µM, first compound 0.316 µM): 37.6%
viability, T/C (second compound 3.16 µM, first compound 1 µM): 21.3%
viability, T/C (second compound 3.16 µM, first compound 3.16 µM): 17.8%
viability, T/C (second compound 3.16 µM, first compound 10 µM): 16.2%
viability, T/C (second compound 10 µM, first compound 0.0316 µM): 62.2%
viability, T/C (second compound 10 µM, first compound 0.1 µM): 50.4%
viability, T/C (second compound 10 µM, first compound 0.316 µM): 27.3%
viability, T/C (second compound 10 µM, first compound 1 µM): 14.1%
viability, T/C (second compound 10 µM, first compound 3.16 µM): 10.9%
viability, T/C (second compound 10 µM, first compound 10 µM): 7.57%

IC50 (second compound 0.00316 µM): > 1000 nM
IC50 (second compound 0.01 µM): > 1000 nM
IC50 (second compound 0.0316 µM): > 1000 nM
IC50 (second compound 0.1 µM): 59.7 nM
IC50 (second compound 0.316 µM): < 3.16 nM
IC50 (second compound 1 µM): < 3.16 nM
Compound: CCN1CCN(Cc2ccc(Nc3ncc(F)c(-c4cc(F)c5nc(C)n(C(C)C)c5c4)n3)nc2)CC1 + COc1c(OCCCN2CCOCC2)ccc2c3n(c(=NC(=O)c4cnc(N)nc4)nc12)CCN3
viability, T/C (second compound 0.00316 µM, first compound 0.00316 µM): 99%
viability, T/C (second compound 0.00316 µM, first compound 0.01 µM): 107%
viability, T/C [1]: 104%
viability, T/C [2]: 116%
viability, T/C [3]: 107%
viability, T/C [4]: 94.8%
viability, T/C (second compound 0.01 µM, first compound 0.00316 µM): 99.2%
viability, T/C (second compound 0.01 µM, first compound 0.01 µM): 94.9%
viability, T/C [5]: 99.7%
viability, T/C [6]: 95.2%
viability, T/C [7]: 76.5%
viability, T/C [8]: 74.7%
viability, T/C (second compound 0.0316 µM, first compound 0.00316 µM): 99%
viability, T/C (second compound 0.0316 µM, first compound 0.01 µM): 99.1%
viability, T/C [9]: 88.3%
viability, T/C [10]: 68.5%
viability, T/C [11]: 57.5%
viability, T/C [12]: 61.5%
viability, T/C (second compound 0.1 µM, first compound 0.00316 µM): 81%
viability, T/C (second compound 0.1 µM, first compound 0.01 µM): 73.2%
viability, T/C [15]: 57.5%
viability, T/C [16]: 40.8%
viability, T/C [17]: 40.7%
viability, T/C [18]: 50.5%
viability, T/C (second compound 0.316 µM, first compound 0.00316 µM): 48.4%
viability, T/C (second compound 0.316 µM, first compound 0.01 µM): 41.7%
viability, T/C [21]: 41.5%
viability, T/C [22]: 27.4%
viability, T/C [23]: 41.7%
viability, T/C [24]: 52.4%
viability, T/C (second compound 1 µM, first compound 0.00316 µM): 27.7%
viability, T/C (second compound 1 µM, first compound 0.01 µM): 32.4%
viability, T/C [27]: 23.4%
viability, T/C [28]: 24.3%
viability, T/C [29]: 34.9%
viability, T/C [30]: 54.8%
